Earlier results, collected in patent publication US20200276090A1, “TOPICAL PRODUCTS WITH A BIPHASIC SYSTEM” (CMED AESTHETICS s.r.l., priority 2017, published 2020).
Read-outs that look alike come from different tables or passages of the source.

Conditions: after 90 days

O=C(O)C(Cl)(Cl)Cl [TCA, trichloroacetic acid]
Degradation of TCA (TCA in aqueous solution alone): 12.6%
Degradation of TCA (in the presence of a high percentage of stabilizing agents, on average): 2-3%
Degradation of TCA (in the presence of a low percentage of stabilizing agents, on average): 4-5%
